# According to patent US20230312481A1, “SUBSTITUTED (PHTHALAZIN-1-YLMETHYL)UREAS, SUBSTITUTED N-(PHTHALAZIN-1-YLMETHYL)AMIDES, AND ANALOGUES THEREOF” (priority 2020, published 2023):
# Where two headings read alike, the source gives them in different places.
# Tested on: HBV rcDNA in HepDE19 cells
# Test: HepDE19 assay with bDNA quantitation of HBV rcDNA
# Type: cell-based, hepatitis B virus
# Details: read-out: DE-19bDNA EC50
# Summary of the method: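 HepDE19 cells were induced by tetracycline withdrawal, then treated with compounds (0.5% DMSO final) for 7 days at 37 °C. HBV rcDNA measured by bDNA assay with HBV-specific probes. Viability assessed on replicate plates (5,000 cells/well, 4 days) by CellTiter-Glo ATP content.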
# [1] = HepDE19 cells, 7 day incubation, rcDNA measured by Quantigene 2.0 bDNA assay, top concentration 25 µM
# [2] = Hepatitis B virus, HepDE19, 168 h, HepDE19 cells, 7 day incubation, rcDNA measured by Quantigene 2.0 bDNA assay, top concentration 25 µM
# [3] = Hepatitis B virus, HepDE19, 168 h
SMILES,EC50 [1],EC50 [3],other results
"CC(c1n[nH]c(=O)c2cc(F)c(F)cc12)N(C)C(=O)c1ccc2c(ccn2C)c1 (single isomer, unassigned) [Compound 107, N-(1-(6,7-difluoro-4-oxo-3,4-dihydrophthalazin-1-yl)ethyl)-N,1-dimethyl-1H-indole-5-carboxamide]",110 nM,,
"CC(c1n[nH]c(=O)c2cc(F)c(F)cc12)N(C)C(=O)c1cc(F)c(C(F)F)c(F)c1 (single isomer, unassigned) [Compound 108, N-(1-(6,7-difluoro-4-oxo-3,4-dihydrophthalazin-1-yl)ethyl)-4-(difluoromethyl)-3,5-difluoro-N-methylbenzamide]",9950 nM,,
"CC(c1n[nH]c(=O)c2cc(F)c(F)cc12)N(C)C(=O)c1cc(F)c(C(F)F)c(F)c1 (single isomer, unassigned) [Compound 109, N-(1-(6,7-difluoro-4-oxo-3,4-dihydrophthalazin-1-yl)ethyl)-4-(difluoromethyl)-3,5-difluoro-N-methylbenzamide]",110 nM,,
"CC(c1n[nH]c(=O)c2cc(F)c(F)cc12)N(C)C(=O)c1ccc2[nH]ncc2c1 (single isomer, unassigned) [Compound 110, N-(1-(6,7-difluoro-4-oxo-3,4-dihydrophthalazin-1-yl)ethyl)-N-methyl-1H-indazole-5-carboxamide]",> 25000 nM,,
"CC(c1n[nH]c(=O)c2cc(F)c(F)cc12)N(C)C(=O)c1ccc2[nH]ncc2c1 (single isomer, unassigned) [Compound 111, N-(1-(6,7-difluoro-4-oxo-3,4-dihydrophthalazin-1-yl)ethyl)-N-methyl-1H-indazole-5-carboxamide]",8880 nM,,
"CC(c1n[nH]c(=O)c2cc(F)c(F)cc12)N(C)C(=O)c1ccc2cn[nH]c2c1 (single isomer, unassigned) [Compound 112, N-(1-(6,7-difluoro-4-oxo-3,4-dihydrophthalazin-1-yl)ethyl)-N-methyl-1H-indazole-6-carboxamide]",> 25000 nM,,
"CC(c1n[nH]c(=O)c2cc(F)c(F)cc12)N(C)C(=O)c1ccc2cn[nH]c2c1 (single isomer, unassigned) [Compound 113, N-(1-(6,7-difluoro-4-oxo-3,4-dihydrophthalazin-1-yl)ethyl)-N-methyl-1H-indazole-6-carboxamide]",2490 nM,,
"C[C@@H](c1n[nH]c(=O)c2cc(F)c(F)cc12)N(C)C(=O)Nc1ccc(F)c(Cl)c1 [Compound 31, 3-(3-chloro-4-fluorophenyl)-1-(1-(6,7-difluoro-4-oxo-3,4-dihydrophthalazin-1-yl)ethyl)-1-methylurea]",,,EC50 [2]: 1800 nM
"C[C@H](c1nn(C)c(=O)c2cc(F)c(F)cc12)N(C)C(=O)Nc1ccc(F)c(Cl)c1 [Compound 36, (R)-3-(3-chloro-4-fluorophenyl)-1-[1-(6,7-difluoro-3-methyl-4-oxo-phthalazin-1-yl)ethyl]-1-methyl-urea]",,13 nM,
"C[C@@H](c1nn(C)c(=O)c2cc(F)c(F)cc12)N(C)C(=O)Nc1ccc(F)c(Cl)c1 [Compound 37, (S)-3-(3-chloro-4-fluorophenyl)-1-(1-(6,7-difluoro-3-methyl-4-oxo-3,4-dihydrophthalazin-1-yl)ethyl)-1-methylurea]",,2300 nM,
"C[C@@H](c1nn(C)c(=O)c2cc(F)c(F)cc12)N(C)C(=O)Nc1ccc(F)cc1 [Compound 38, (S)(1-(6,7-difluoro-3-methyl-4-oxo-3,4-dihydrophthalazinyl)ethyl)-3-(4-fluorophenyl)methylurea]",,8200 nM,
"CC(C)CN(C(=O)Nc1ccccc1)C(C)c1n[nH]c(=O)c2cc(F)c(F)cc12 (stereo not shown) [Compound 40, 1-(1-(6,7-difluoro-4-oxo-3,4-dihydrophthalazin-1-yl)ethyl)-1-isobutyl-3-phenylurea]",,17 nM,
"C[C@H](c1n[nH]c(=O)c2cc(F)c(F)cc12)N(C)C(=O)Nc1ccc(F)c(F)c1 [Compound 41, (R)(1-(6,7-difluoro-4-oxo-3,4-dihydrophthalazinyl)ethyl)methyl-3-(3,4-difluorophenyl)urea]",,24 nM,
"C[C@H](c1n[nH]c(=O)c2cc(F)c(F)cc12)N(C)C(=O)Nc1cc(F)c(F)c(F)c1 [Compound 42, (R)(1-(6,7-difluoro-4-oxo-3,4-dihydrophthalazinyl)ethyl)methyl-3-(3,4,5-trifluorophenyl)urea]",,25 nM,
"C[C@H](c1n[nH]c(=O)c2cc(F)c(F)cc12)N(C)C(=O)Nc1ccc(F)cc1 [Compound 43, (R)(1-(6,7-difluoro-4-oxo-3,4-dihydrophthalazinyl)ethyl)-3-(4-fluorophenyl)methylurea]",,59 nM,
"CC(c1n[nH]c(=O)c2c(F)cccc12)N(C)C(=O)Nc1ccc(F)c(Cl)c1 (stereo not shown) [Compound 44, 3-(3-chloro-4-fluorophenyl)-1-(1-(5-fluoro-4-oxo-3,4-dihydrophthalazin-1-yl)ethyl)-1-methylurea]",,,EC50 [2]: 290 nM
"CC(c1n[nH]c(=O)c2c(F)cccc12)N(C)C(=O)Nc1ccc(F)c(F)c1 (stereo not shown) [Compound 45, 3-(3,4-difluorophenyl)-1-(1-(5-fluoro-4-oxo-3,4-dihydrophthalazin-1-yl)ethyl)-1-methylurea]",,,EC50 [2]: 790 nM
"C[C@H](c1n[nH]c(=O)c2cc(F)c(F)cc12)N(C)C(=O)c1cc2ccccc2[nH]1 [Compound 46, (R)-N-(1-(6,7-difluoro-4-oxo-3,4-dihydrophthalazin-1-yl)ethyl)-N-methyl-1H-indole-2-carboxamide]",,32 nM,
"C[C@H](c1n[nH]c(=O)c2cc(F)c(F)cc12)N(C)C(=O)c1cc2c(F)c(F)ccc2[nH]1 [Compound 57, (R)-N-(1-(6,7-difluoro-4-oxo-3,4-dihydrophthalazin-1-yl)ethyl)-4,5-difluoro-N-methyl-1H-indole-2-carboxamide]",,12 nM,
"C[C@H](c1n[nH]c(=O)c2cc(F)c(F)cc12)N(C)C(=O)c1cc2c([nH]1)CCCC2 [Compound 58, (R)-N-(1-(6,7-difluoro-4-oxo-3,4-dihydrophthalazin-1-yl)ethyl)-N-methyl-4,5,6,7-tetrahydro-1H-indole-2-carboxamide]",,120 nM,
"CC(c1n[nH]c(=O)c2cc(F)c(F)cc12)N(C)C(=O)[C@@H]1Cc2ccccc2N1 (stereo partly drawn) [Compound 78, (2S)-N-(1-(6,7-difluoro-4-oxo-3,4-dihydrophthalazin-1-yl)ethyl)-N-methylindoline-2-carboxamide]",,,EC50 [2]: 3640 nM
"C[C@H](c1n[nH]c(=O)c2cc(F)c(F)cc12)N(C)C(=O)c1cc2sc(Cl)cc2[nH]1 [Compound 79, (R)-2-chloro-N-(1-(6,7-difluoro-4-oxo-3,4-dihydrophthalazin-1-yl)ethyl)-N-methyl-4H-thieno[3,2-b]pyrrole-5-carboxamide]",,30 nM,
